# Source: ChEMBL document CHEMBL6121046, “Discovery of Novel Hydrazide-Based HDAC3 Inhibitors as Epigenetic Immunomodulators for Cancer Immunotherapy” (J Med Chem, 2025)
# The source made the active and inactive calls. No cut-off for these calls is given here.
# Key:
# Mus musculus [1] = experiment: (§1) Immunomodulatory effect in C57BL/6 mouse allografted mouse MC38 cells assessed as increase in tumor infiltrating lymphocytes by measuring increase in CD8+ T helper cells in mouse blood at 50 mg/kg, po treated 5 days after cell inoculation 19 th day by flow cytometry analysis (reference value: 0.35%); type: functional; details: time 15 day
# Mus musculus [2] = experiment: as §1, with “CD4+” for “CD8+”, “spleen” for “blood”, “10.8%)” for “0.35%)”; type: functional; details: time 15 day
# Mus musculus [3] = experiment: (§2) Immunomodulatory effect in C57BL/6 mouse allografted mouse MC38 cells assessed as increase in tumor infiltrating lymphocytes by measuring increase in CD4+ T helper cells in tumor at 50 mg/kg, po treated 5 days after cell inoculation 19 th day by flow cytometry analysis (reference value: 2.57%); type: functional; details: time 15 day
# Mus musculus [4] = experiment: as §1, with “spleen” for “blood”, “13.6%)” for “0.35%)”; type: functional; details: time 15 day
# MC-38 [5] = experiment: In vivo antitumor activity against mouse MC38 cells allografted in C57BL/6 mouse assessed as tumor growth inhibition at 50 mg/kg, po treated 5 days after cell inoculation 19 th day relative to control; type: functional; details: MC-38, 360 h, time 15 day, read-out: TGI
# [6] = Oral bioavailability in C57BL/6 mouse allografted with mouse MC38 cells at 50 mg/kg; type: ADME, organism-based; details: in vivo
# MC-38 [7] = experiment: In vivo antitumor activity against mouse MC38 cells allografted in C57BL/6 mouse assessed as decrease in […] positive cells in tumor at 50 mg/kg, po treated 5 days after cell inoculation 19 th day by immunofluorescence analysis; type: functional, organism-based; details: time 15.0 day
# Mus musculus [8] = experiment: as §1, with “lymph nodes” for “blood”, “20.3%)” for “0.35%)”; type: functional; details: time 15 day
# Mus musculus [9] = experiment: Induction of PD-L1 expression in tumor in C57BL/6 mouse allografted with mouse MC38 cells in presence of NP19 PD-L1 inhibitor at 50 mg/kg, po treated 5 days after cell inoculation 19 th day by immunofluorescence analysis; type: functional, organism-based; details: time 15.0 day
# Mus musculus [10] = experiment: Immunomodulatory effect in C57BL/6 mouse allografted with mouse MC38 cells assessed as increase in tumor infiltrating lymphocytes by measuring increase in CD3+ CD4+ cells at 50 mg/kg, po treated 5 days after cell inoculation 19 th day by flow cytometry analysis; type: functional, organism-based; details: time 15.0 day
# Mus musculus [11] = experiment: Immunomodulatory effect in C57BL/6 mouse allografted mouse MC38 cells assessed as increase in tumor infiltrating lymphocytes by measuring increase in CD8+ T […] cells in tumor at 50 mg/kg, po treated 5 days after cell inoculation 19 th day by flow cytometry analysis (reference value: 2.32%); type: functional; details: time 15 day
# Mus musculus [12] = experiment: Immunomodulatory effect in C57BL/6 mouse allografted mouse MC38 cells assessed as increase in tumor infiltrating lymphocytes by measuring increase in CD4+ T helper cells in mouse blood at 50 mg/kg, po treated 5 days after cell inoculation 19 th day by flow cytometry analysis (reference value: 0.27%); type: functional; details: time 15 day
# Mus musculus [13] = experiment: as §2, with “cells in mouse lymph nodes at 50” for “cells in tumor at 50”, “(reference value: 15.5%)” for “(reference value: 2.57%)”; type: functional; details: time 15 day
# MC-38 [14] = experiment: In vivo antitumor activity against mouse MC38 cells allografted in C57BL/6 mouse assessed as increase in Tunel-positive cells in tumor at 50 mg/kg, po treated 5 days after cell inoculation 19 th day by immunofluorescence analysis; type: functional, organism-based; details: time 15.0 day
structure (smiles),measurement,setting,value
Cc1c(COc2cc(OCc3cccc(C#N)c3)c(CNC(C)(C)C(=O)O)cc2Cl)cccc1-c1ccccc1,Activity,Mus musculus [1],0.42%
same,Activity,Mus musculus [2],10.2%
same,Activity,Mus musculus [3],2.69%
same,Activity,Mus musculus [4],12.1%
same,inhibition in vivo at 50 mg/kg,MC-38 [5],8%
same,bioavailability,[6],< 5%
same,Activity,MC-38 [7],inactive
same,Activity,Mus musculus [8],18.9%
same,Activity,Mus musculus [9],inactive
same,Activity,Mus musculus [10],inactive
same,Activity,Mus musculus [11],3.18%
same,Activity,Mus musculus [12],0.38%
same,Activity,Mus musculus [13],11.2%
same,Activity,MC-38 [14],Active
